From publication PMC12340637, “Transport of Small Aliphatic Amines by Polyspecific Solute Carriers: Deciphering Structure–Function Relationships” (ACS Pharmacology & Translational Science, 2025)
Where two headings read alike, the source gives them in different places. Marks after values point to notes of the source that are not given here. Each block holds one molecule with its values, some of them ahead of it.

Experiments:
[1] = target: T1, OCT3 (SLC22A3) (Homo sapiens, UniProt O75751); test: Cellular uptake into OCT3-overexpressing HEK293 cells vs EV control cells (HPLC-MS/MS)
T1 sequence (O75751 1-556): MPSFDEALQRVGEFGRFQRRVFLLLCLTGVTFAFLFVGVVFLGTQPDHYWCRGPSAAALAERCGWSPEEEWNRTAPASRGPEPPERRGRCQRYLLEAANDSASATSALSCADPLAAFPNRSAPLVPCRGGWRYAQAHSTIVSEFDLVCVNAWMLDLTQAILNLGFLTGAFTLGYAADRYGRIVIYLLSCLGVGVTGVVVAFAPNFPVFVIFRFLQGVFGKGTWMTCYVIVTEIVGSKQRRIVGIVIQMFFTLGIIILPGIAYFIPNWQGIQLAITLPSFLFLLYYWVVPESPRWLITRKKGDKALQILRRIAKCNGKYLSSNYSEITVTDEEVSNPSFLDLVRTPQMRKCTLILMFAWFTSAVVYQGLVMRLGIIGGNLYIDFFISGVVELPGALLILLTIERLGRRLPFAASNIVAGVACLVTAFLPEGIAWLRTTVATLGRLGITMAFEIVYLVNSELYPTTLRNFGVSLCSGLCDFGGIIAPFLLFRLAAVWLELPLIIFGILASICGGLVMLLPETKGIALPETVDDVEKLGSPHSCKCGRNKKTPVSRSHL

[2] = target: T2, OCT1 (SLC22A1) (Homo sapiens, UniProt O15245); test: Cellular uptake into OCT1-overexpressing HEK293 cells vs EV control cells (HPLC-MS/MS)
T2 sequence (O15245 1-554): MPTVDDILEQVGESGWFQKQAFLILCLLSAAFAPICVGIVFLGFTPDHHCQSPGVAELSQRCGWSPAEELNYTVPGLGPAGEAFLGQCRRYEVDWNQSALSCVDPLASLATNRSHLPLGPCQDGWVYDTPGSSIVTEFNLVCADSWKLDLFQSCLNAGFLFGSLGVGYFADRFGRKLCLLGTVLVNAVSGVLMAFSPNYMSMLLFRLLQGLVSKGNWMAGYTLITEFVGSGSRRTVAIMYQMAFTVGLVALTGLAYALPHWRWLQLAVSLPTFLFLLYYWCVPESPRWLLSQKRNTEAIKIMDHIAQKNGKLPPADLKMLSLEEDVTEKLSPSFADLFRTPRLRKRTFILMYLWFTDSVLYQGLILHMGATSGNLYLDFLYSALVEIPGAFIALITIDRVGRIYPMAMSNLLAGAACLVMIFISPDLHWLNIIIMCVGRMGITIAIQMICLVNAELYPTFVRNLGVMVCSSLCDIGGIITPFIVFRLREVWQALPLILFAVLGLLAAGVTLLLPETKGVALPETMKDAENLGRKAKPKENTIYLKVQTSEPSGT

[3] = target: T3, MATE2-K (SLC47A2) (Homo sapiens, UniProt Q86VL8); test: Cellular uptake into MATE2-K-overexpressing HEK293 cells vs EV control cells (HPLC-MS/MS)
T3 sequence (Q86VL8 1-566 isoform Q86VL8-3): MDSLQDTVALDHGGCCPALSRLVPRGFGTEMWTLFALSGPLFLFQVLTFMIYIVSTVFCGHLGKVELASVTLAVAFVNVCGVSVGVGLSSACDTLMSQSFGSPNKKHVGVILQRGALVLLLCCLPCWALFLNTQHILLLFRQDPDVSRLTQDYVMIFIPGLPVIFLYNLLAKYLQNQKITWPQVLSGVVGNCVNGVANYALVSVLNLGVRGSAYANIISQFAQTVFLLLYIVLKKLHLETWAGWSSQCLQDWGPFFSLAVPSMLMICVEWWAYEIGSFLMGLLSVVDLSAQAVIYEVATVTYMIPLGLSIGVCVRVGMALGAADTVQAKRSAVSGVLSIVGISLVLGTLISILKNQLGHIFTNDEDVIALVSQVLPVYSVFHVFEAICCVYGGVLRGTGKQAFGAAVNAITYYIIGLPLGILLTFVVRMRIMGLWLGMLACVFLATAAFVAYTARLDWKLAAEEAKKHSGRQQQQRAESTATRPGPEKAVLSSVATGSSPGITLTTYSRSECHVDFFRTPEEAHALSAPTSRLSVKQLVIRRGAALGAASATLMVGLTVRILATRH

[4] = target: T4, OCT2 (SLC22A2) (Homo sapiens, UniProt O15244); test: Cellular uptake into OCT2-overexpressing HEK293 cells vs EV control cells (HPLC-MS/MS)
T4 sequence (O15244 1-555): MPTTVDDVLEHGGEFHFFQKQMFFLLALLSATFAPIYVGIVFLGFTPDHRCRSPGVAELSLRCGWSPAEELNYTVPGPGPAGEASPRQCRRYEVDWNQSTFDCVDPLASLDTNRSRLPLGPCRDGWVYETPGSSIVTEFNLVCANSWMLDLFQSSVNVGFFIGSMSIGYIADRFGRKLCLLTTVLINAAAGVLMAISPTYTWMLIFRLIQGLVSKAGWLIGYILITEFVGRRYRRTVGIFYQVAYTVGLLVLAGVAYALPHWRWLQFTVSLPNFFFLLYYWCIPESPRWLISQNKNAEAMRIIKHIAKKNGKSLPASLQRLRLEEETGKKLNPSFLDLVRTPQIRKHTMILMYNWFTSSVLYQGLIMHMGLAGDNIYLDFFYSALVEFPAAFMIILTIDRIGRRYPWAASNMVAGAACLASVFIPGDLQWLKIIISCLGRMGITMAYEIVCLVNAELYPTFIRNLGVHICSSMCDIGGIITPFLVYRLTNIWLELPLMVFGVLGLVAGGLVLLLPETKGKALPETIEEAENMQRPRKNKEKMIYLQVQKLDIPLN

[5] = target: T4, OCT2 (SLC22A2); conditions: pH 7.4
[6] = target: T5, MATE1 (SLC47A1) (Homo sapiens, UniProt Q96FL8); test: Cellular uptake into MATE1-overexpressing HEK293 cells vs EV control cells (HPLC-MS/MS)
T5 sequence (Q96FL8 1-570): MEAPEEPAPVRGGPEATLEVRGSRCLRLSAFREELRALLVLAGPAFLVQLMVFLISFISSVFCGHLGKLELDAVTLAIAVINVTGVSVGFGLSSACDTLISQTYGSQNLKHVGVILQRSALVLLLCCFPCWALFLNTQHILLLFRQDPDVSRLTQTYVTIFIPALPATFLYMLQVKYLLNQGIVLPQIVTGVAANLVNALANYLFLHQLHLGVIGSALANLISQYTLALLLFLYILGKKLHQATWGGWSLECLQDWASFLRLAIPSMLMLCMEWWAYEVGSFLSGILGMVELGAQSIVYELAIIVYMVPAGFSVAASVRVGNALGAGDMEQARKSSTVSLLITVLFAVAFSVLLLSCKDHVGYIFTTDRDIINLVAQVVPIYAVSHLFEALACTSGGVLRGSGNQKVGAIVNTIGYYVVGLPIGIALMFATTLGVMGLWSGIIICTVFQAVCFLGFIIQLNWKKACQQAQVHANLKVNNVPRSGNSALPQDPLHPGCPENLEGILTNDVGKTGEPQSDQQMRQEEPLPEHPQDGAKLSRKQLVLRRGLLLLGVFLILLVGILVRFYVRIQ

[7] = target: T3, MATE2-K (SLC47A2)
[8] = target: T6, OCT2 (Homo sapiens, UniProt O15244); design: method as in Higashi et al. (2014); conditions: ref Higashi et al. (2014); cited from earlier work
T6 sequence (O15244 1-555): T4 sequence (O15244 1-555)

[9] = system: OCTs 1–3; design: method as in Sala-Rabanal et al. (2013); conditions: rodent orthologues, ref Sala-Rabanal et al. (2013), cited from earlier work
[10] = target: T5, MATE1 (SLC47A1); test: in vitro; conditions: pH 7.4
[11] = target: T2, OCT1 (SLC22A1); test: in vitro; conditions: pH 7.4
[12] = target: T3, MATE2-K (SLC47A2); test: in vitro; conditions: pH 7.4
[13] = target: T4, OCT2 (SLC22A2); test: in vitro; conditions: pH 7.4
[14] = uptake ratio ≥2 = notable transport
[15] = OCT2, net uptake, Michaelis–Menten

SMILES: CC(C)NC(C)C [diisopropylamine]
uptake ratio OCT3 (transporter-overexpressing cells over EV control cells): mean (±SD, N) ([1]; 10 μM substrate, 2 min, HEK293): 1.1 (0.2, 4) | uptake ratio OCT1 (transporter-overexpressing cells over EV control cells): mean (±SD, N) [2]: 1.4 (0.3, 4) | uptake ratio MATE2K (transporter-overexpressing cells over EV control cells): mean (±SD, N) [3]: 1.2 (0.1, 3) | uptake ratio OCT2 (transporter-overexpressing cells over EV control cells): mean (±SD, N) [4]: 5.1 (1.2, 4) ^b | v max (±SEM) [4]: 1388 (±157) pmol/mg protein/min | CLint (±SEM) [5]: 20 (±12) μL/mg protein/min | uptake ratio MATE1 (transporter-overexpressing cells over EV control cells): mean (±SD, N) [6]: 0.8 (0.02, 3) ^b

SMILES: C[C@@H](N)CCO [(R)-3-aminobutan-1-ol]
selectivity ratio at 1 min [10]: 1.9 | selectivity ratio at 2 min [11]: 1.1 | selectivity ratio at 1 min [12]: 1.4 | selectivity ratio at 2 min [13]: 2.7

Second part, led by results:

stereoselectivity OCT3 (uptake ratio of the more strongly transported enantiomer divided by that of the other) ([1]; label = favoured enantiomer): 1.4-fold for (S) | stereoselectivity OCT1 (uptake ratio of the more strongly transported enantiomer divided by that of the other) ([2]; label = favoured enantiomer): 1.3-fold for (S) | stereoselectivity MATE2K (uptake ratio of the more strongly transported enantiomer divided by that of the other) [7]: 1.1-fold for (S) | stereoselectivity OCT2 (uptake ratio of the more strongly transported enantiomer divided by that of the other) ([4]; label = favoured enantiomer): 1.2-fold for (S)
SMILES: C[C@H](N)CN [(S)-(−)-1,2-diaminopropane]

substrate activity at OCT3 (in words) [1, 14]: did not show any substrate activity | substrate activity at OCT1 (in words) [2, 14]: did not show any substrate activity | substrate activity at MATE2-K (in words) [3, 14]: did not show any substrate activity | substrate activity at OCT2 (in words) [4, 14]: did not show any substrate activity | substrate activity at MATE1 (in words) [6, 14]: did not show any substrate activity
SMILES: NCCCCNCCCN [spermidine]
K m of spermidine transport [8]: 6.76 mM | K m of spermidine transport ([9]; OCT-expressing oocytes): 1 mM | increase in spermidine uptake by OCT-expressing oocytes compared to non-injected oocytes [9]: up to 3 fold

K m (±SEM) [4, 15]: 198 (±67) μM | v max (±SEM) [4, 15]: 1453 (±179) ^a pmol/mg protein/min
SMILES: CCC[C@@H](N)CO [(R)-(−)-2-amino-1-pentanol]
selectivity ratio at 1 min [10]: 1.5 | selectivity ratio at 2 min [11]: 1.1 | selectivity ratio at 1 min [12]: 1.2
